Assays:
[1] = test system: human umbilical vein endothelial cells (HUVEC); experiment: HUVEC proliferation, [3H]-thymidine incorporation; assay type: cell-based; settings: guanine 10 μM and 20 μM
Method: (§1) 32,000 FDA drug approvals obtained by Freedom of Information Act requests were condensed to 3,400 unique drug formulations. Drugs were purchased from Sigma, Spectrum Chemicals, MP Biomedicals, The Johns Hopkins Hospital pharmacy, Biomol, and Tocris. 10 mM stock solutions were made using DMSO, water, or ethanol as solvents. Drugs were arrayed in 96-well plates and screened at a final concentration of 10 μM. Cells were incubated with drug for 36 h and proliferation was measured by pulsing with 1 μCi [^3H]-thymidine for 8 h followed by absorption onto glass filters and scintillation counting.
(§2) IC50 measurements were carried out in triplicate, and analyzed using four parameter logarithmic analysis. Values are presented+/−the standard error of the mean. P-values were calculated using the Student's T-test.
A library of 1,850 FDA-approved drugs and 600 drugs that entered the clinic via approval in a foreign country or phase II clinical trials was created. To discover new angiogenesis inhibitors among known drugs, the library was screened for inhibition of human umbilical vein endothelial cells (HUVEC) using [^3H]-thymidine incorporation. […] After eliminating known cytotoxic drugs such as taxol and colchicine or drugs that are restricted to topical use, several drugs remained. […]

Jurkat T cells = experiment: Jurkat T-cell proliferation, [3H]-thymidine incorporation; assay type: cell-based
Method: as §1, §2
MPA is an immunosuppressive drug widely used to prevent rejection of transplanted organs (Lipsky, J. J. (1996) Lancet 348, 1357-1359). The mechanism of action in the immune system is well established-MPA inhibits de novo biosynthesis of purines in T and B lymphocytes (Allison, A. C. & Eugui, E. M. (2000) Immunopharmacology 47, 85-118). […] Thus, a comparison of HUVEC to Jurkat T cells for sensitivity to MPA in the presence and absence of guanine was carried out. […] Addition of guanine at or above 20 μM rendered Jurkat T cells resistant to MPA. […]

HUVEC = experiment: Cell cycle analysis of HUVEC; assay type: cell-based, human; settings: 1 μM MPA + 50 μM guanosine
Description: It has been shown that MPA causes cell cycle arrest in activated T and B lymphocytes at G1 (Laliberte, J., Yee, A., Xiong, Y. & Mitchell, B. S. (1998) Blood 91, 2896-2904). Therefore, the effect of MPA on endothelial cell cycle progression was examined.

## COc1c(C)c2c(c(O)c1C/C=C(\C)CCC(=O)O)C(=O)OC2 [MPA, 6-(4-hydroxy-6-methoxy-7-methyl-3-oxo-1,3-dihydroisobenzofuran-5-yl)-4-methyl-hex-4-enoic acid]
[1]
  effect of exogenous guanine on MPA inhibition of HUVEC proliferation: partially reversed
Jurkat T cells; guanine 10 μM
  effect of exogenous guanine on MPA inhibition of Jurkat T-cell proliferation: unaffected
Jurkat T cells; guanine 20 μM and 50 μM
  effect of exogenous guanine on MPA inhibition of Jurkat T-cell proliferation: completely reversed
HUVEC
  effect of guanosine on the cell cycle effect of MPA: completely reversed
